In test [1] the target is T1, B-RAF V600E (Homo sapiens, UniProt P15056, V600E).
T1 construct: expressed in transfected cells; host or cells: T-Rex 293 cells (Invitrogen #R71007)
In words: Target protein degradation, assay C: T-Rex 293 cells, HA-BRAF_V600E, 384 well format. Type of test: cell-based. The conditions noted are these: T-Rex 293 HA-BRAF_V600E cells, 24 hours, Examples 83-269; for DC50: Assay C; for Dmax: T-REx-293, Assay C. As to the method: C. T-Rex 293 Cells (384 Well Format)
(§1) T-Rex 293 cells were purchased from Invitrogen (#R71007), and stably transfected with a pcDNA4/TO_HA-BRAF_V600E construct, using 400 ug Zeocin for selection. V600E cells are plated in DMEM media (Gibco #11965118) containing 10% FBS (Gibco #16000044), 1% penicillin-streptomycin (ThermoFisher #15140122), 1:250 zeocin (Invitrogen #R-25005), and 1 ng/mL doxycycline (Selleckchem #4163) at a density of 7,500 cells/well in 45 μl on PDL coated, black clear bottom 384 well plates (Corning #354663) and incubated at 37° C.+5% CO2 for 24 hours. The following day, PROTAC compounds in a 1:3 11 point dilution are diluted into DMEM media using an Agilent Bravo. 5 ul of PROTACs suspended in DMEM media are added to the cells, with a final assay concentration ranging from 300 nM to 5 pM in 0.5% DMSO. Plates are incubated at 37° C.+5% CO2 for 24 hours. At the end of treatment, media is aspirated, and cells are fixed in 50 uL 4% PFA (EMS #15710) in PBS++(PBS, 1 mM CaCl, 1 mM MgCl) at RT for 15 minutes. Cells are washed 2× with 60 uL PBS++ and permeabilized in 50 uL 1% Triton X-100 (Sigma #93443) in PBS++ for 5 minutes at RT. Cells are washed in PBS++ prior to blocking with 50 uL Licor blocking buffer (Licor #927-60001) for 1 hour at RT. HA-tagged BRAF was stained using 50 uL HA antibody (CST #3724) at 1:1000 in Licor blocking buffer for two hours at RT. Primary is aspirated before adding 50 ul of secondary antibody solution containing 1:1000 Hoechst (ThermoFisher #62249), 1:1000 HCS CellMask Deep Red Stain (ThermoFisher #H32721), and 1:5000 goat anti-rabbit IgG Alexa-Fluor 488 (ThermoFisher #A32731) in PBS++ for 1 hr at RT. Plates are washed 4× with 60 uL PBS++, then sealed with Adhesive Black Light Absorbing Film (VWR #89087-692) and imaged on the ThermoFisher CX7 PRO high content instrument. BRAF intensity is quantified in HCS Studio software (ThermoFisher), using a custom script, exported, analyzed using KNIME, and curve curation is performed in an ELN (Scilligence). Cell toxicity is measured via comparing number of nuclei in PROTAC treated wells to DMSO controls.
(§2) The concentration of an exemplary compound that leads to half maximal degradation (DC50) as well as the maximum degradation observed (Dmax, conventionally expressed as a percentage of control) is shown below in Table 2.

For test [2], the target named is T2, B-RAF G466V (Homo sapiens, UniProt P15056, G466V).
T2 construct: expressed in transfected cells; host or cells: T-Rex 293 cells (Invitrogen #R71007)
The experiment in a line: Target protein degradation, assay D: T-Rex 293 cells, HA-BRAF_G466V, 384 well format. Type of test: cell-based. Particulars: T-Rex 293 HA-BRAF_G466V cells, 24 hours, Examples 83-269; for Dmax: T-REx-293, Assay D. As to the method:
D. T-Rex 293 Cells (384 Well Format)
as §1, with “pcDNA4/TO_HA-BRAF_G466V” for “pcDNA4/TO_HA-BRAF_V600E”, “G466V” for “V600E”
as §2

A value given as a limit tells only on which side of the number the result lay.

T2 sequence (P15056 whole entry G466V): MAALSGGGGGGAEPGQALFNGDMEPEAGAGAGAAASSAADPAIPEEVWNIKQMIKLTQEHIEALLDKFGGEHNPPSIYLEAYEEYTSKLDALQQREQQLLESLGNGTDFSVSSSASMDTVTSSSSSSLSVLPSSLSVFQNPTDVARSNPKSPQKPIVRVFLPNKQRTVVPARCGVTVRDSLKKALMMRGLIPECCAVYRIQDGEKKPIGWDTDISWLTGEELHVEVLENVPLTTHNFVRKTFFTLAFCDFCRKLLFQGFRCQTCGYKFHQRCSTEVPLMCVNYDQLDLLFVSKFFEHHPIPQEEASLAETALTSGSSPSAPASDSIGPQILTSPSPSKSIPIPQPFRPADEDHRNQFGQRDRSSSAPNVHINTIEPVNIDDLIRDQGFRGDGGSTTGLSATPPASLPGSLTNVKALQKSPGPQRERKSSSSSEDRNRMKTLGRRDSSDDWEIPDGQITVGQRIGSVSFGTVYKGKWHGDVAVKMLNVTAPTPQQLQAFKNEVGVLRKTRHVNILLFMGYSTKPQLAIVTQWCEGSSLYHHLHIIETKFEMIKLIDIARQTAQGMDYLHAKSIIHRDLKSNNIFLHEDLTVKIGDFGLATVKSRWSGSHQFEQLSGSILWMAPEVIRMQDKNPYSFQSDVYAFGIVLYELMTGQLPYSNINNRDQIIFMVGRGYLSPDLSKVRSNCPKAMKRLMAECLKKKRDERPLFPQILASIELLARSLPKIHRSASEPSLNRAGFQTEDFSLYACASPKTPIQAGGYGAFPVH
T1 sequence (P15056 whole entry V600E): as the sequence (P15056 whole entry G466V) above, with V466G, V600E counted along it

The DC50 is the midpoint of the concentration-degradation curve. High values mean a less potent degrader, low ones a more potent degrader. Usually Dmax stands for the greatest extent of degradation seen. Read a low Dmax as a partial loss of target. As for `Cc1c(N2CCC(CN3CCN(c4ccc(-n5cnc6ccc(Oc7c(F)ccc(NS(=O)(=O)N8CC[C@@H](F)C8)c7C#N)cc6c5=O)cc4)CC3)CC2)ccc2c1CN(C1CCC(=O)NC1=O)C2=O` (single isomer, unassigned) [Example 111, (3R)-N-(2-cyano-3-{[3-(4-{4-[(1-{2-[(3R*)-2,6-dioxopiperidin-3-yl]-4-methyl-1-oxo-2,3-dihydro-1H-isoindol-5-yl}piperidin-4-yl)methyl]piperazin-1-yl}phenyl)-4-oxo-3,4-dihydroquinazolin-6-yl]oxy}-4-fluorophenyl)-3-fluoropyrrolidine-1-sulfonamide], the DC50 lay within 50 to 500 nM in test [1] and 1 to 10 nM in test [2] (Assay D). The Dmax in test [1] and in test [2] was 35 to 70% in each case.
Consider `N#Cc1c(NS(=O)(=O)N2CC[C@@H](F)C2)ccc(F)c1Oc1ccc2ncn(-c3ccc(N4CCN(CC5CCN(c6ccc(C7CCC(=O)NC7=O)cc6F)CC5)CC4)cc3)c(=O)c2c1` (single isomer, unassigned) [Example 112, (3R)-N-(2-cyano-3-{[3-(4-{4-[(1-{4-[(3R*)-2,6-dioxopiperidin-3-yl]-2-fluorophenyl}piperidin-4-yl)methyl]piperazin-1-yl}phenyl)-4-oxo-3,4-dihydroquinazolin-6-yl]oxy}-4-fluorophenyl)-3-fluoropyrrolidine-1-sulfonamide], for which the DC50 in test [1] was in the range of 5 to 50 nM; in test [2] (Assay D), 1 to 10 nM. Besides, the maximal degradation (Dmax) in test [1] and in test [2] was 35 to 70% throughout.
On to `Cc1c(N2CCC(CN3CCN(c4ccc(-n5cnc6ccc(Oc7c(F)ccc(NS(=O)(=O)N8CC[C@@H](F)C8)c7C#N)cc6c5=O)cc4)CC3)CC2)ccc2c1CN(C1CCC(=O)NC1=O)C2=O` (single isomer, unassigned) [Example 113, (3R)-N-(2-cyano-3-{[3-(4-{4-[(1-{2-[(3R*)-2,6-dioxopiperidin-3-yl]-4-methyl-1-oxo-2,3-dihydro-1H-isoindol-5-yl}piperidin-4-yl)methyl]piperazin-1-yl}phenyl)-4-oxo-3,4-dihydroquinazolin-6-yl]oxy}-4-fluorophenyl)-3-fluoropyrrolidine-1-sulfonamide], for which the DC50 was 50 to 500 nM in test [1] and 1 to 10 nM in test [2] (Assay D).
On to `N#Cc1c(NS(=O)(=O)N2CC[C@@H](F)C2)ccc(F)c1Oc1ccc2ncn(-c3ccc(N4CC(CN5CCN(C6CCN(c7ccc8c(c7)CN(C7CCC(=O)NC7=O)C8=O)CC6)CC5)C4)cc3)c(=O)c2c1` (single isomer, unassigned) [Example 197, (3R)-N-[2-cyano-3-({3-[4-(3-{[4-(1-{2-[(3R*)-2,6-dioxopiperidin-3-yl]-1-oxo-2,3-dihydro-1H-isoindol-5-yl}piperidin-4-yl)piperazin-1-yl]methyl}azetidin-1-yl)phenyl]-4-oxo-3,4-dihydroquinazolin-6-yl}oxy)-4-fluorophenyl]-3-fluoropyrrolidine-1-sulfonamide], for which the half-maximal degradation concentration (DC50) in test [1] was in the range of 50 to 500 nM; in test [2] (Assay D), 1 to 10 nM. For the same compound, the Dmax in test [1] is no more than 35%; in test [2], 35 to 70%.
Take `N#Cc1c(NS(=O)(=O)N2CC[C@@H](F)C2)ccc(F)c1Oc1ccc2ncn(-c3ccc(N4CC(CN5CCN(C6CCN(c7ccc8c(c7)CN(C7CCC(=O)NC7=O)C8=O)CC6)CC5)C4)cc3)c(=O)c2c1` (single isomer, unassigned) [Example 198, (3R)-N-[2-cyano-3-({3-[4-(3-{[4-(1-{2-[(3R*)-2,6-dioxopiperidin-3-yl]-1-oxo-2,3-dihydro-1H-isoindol-5-yl}piperidin-4-yl)piperazin-1-yl]methyl}azetidin-1-yl)phenyl]-4-oxo-3,4-dihydroquinazolin-6-yl}oxy)-4-fluorophenyl]-3-fluoropyrrolidine-1-sulfonamide]: the DC50 in test [1] fell in the range of 50 to 500 nM; in test [2] (Assay D), 1 to 10 nM.
In the case of `N#Cc1c(NS(=O)(=O)N2CC[C@@H](F)C2)ccc(F)c1Oc1ccc2ncn(-c3ccc(N4CCN(C(=O)C5CCN(c6ccc7c(c6)CN(C6CCC(=O)NC6=O)C7=O)CC5)CC4)cc3)c(=O)c2c1` (single isomer, unassigned) [Example 241, (3R)-N-{2-cyano-3-[(3-{4-[4-(1-{2-[(3R*)-2,6-dioxopiperidin-3-yl]-1-oxo-2,3-dihydro-1H-isoindol-5-yl}piperidine-4-carbonyl)piperazin-1-yl]phenyl}-4-oxo-3,4-dihydroquinazolin-6-yl)oxy]-4-fluorophenyl}-3-fluoropyrrolidine-1-sulfonamide], the DC50 in test [1] was greater than 500 nM; in test [2] (Assay D), greater than 30 nM. In test [2], this compound yielded a Dmax of 35 to 70%.
As to `N#Cc1c(NS(=O)(=O)N2CC[C@@H](F)C2)ccc(F)c1Oc1ccc2ncn(-c3ccc(N4CCN(C(=O)C5CCN(c6ccc7c(c6)CN(C6CCC(=O)NC6=O)C7=O)CC5)CC4)cc3)c(=O)c2c1` (single isomer, unassigned) [Example 242, (3R)-N-{2-cyano-3-[(3-(4-[4-(1-{2-[(3R*)-2,6-dioxopiperidin-3-yl]-1-oxo-2,3-dihydro-1H-isoindol-5-yl}piperidine-4-carbonyl)piperazin-1-yl]phenyl}-4-oxo-3,4-dihydroquinazolin-6-yl)oxy]-4-fluorophenyl}-3-fluoropyrrolidine-1-sulfonamide], the DC50 in test [1] was greater than 500 nM. Moreover, in test [2] (Assay D), the “B-RAF G466V DMax (%)” value is “C (C ≤ 35)” and the DC50 lay within 10 to 30 nM.
On to `N#Cc1c(NS(=O)(=O)N2CC[C@@H](F)C2)ccc(F)c1Oc1ccc2ncn(-c3cccc(C4CCN(CC5CCN(c6ccc7c(c6)CN([C@H]6CCC(=O)NC6=O)C7=O)CC5)C4)c3)c(=O)c2c1` (single isomer, unassigned) [Example 257, (3R)-N-{2-cyano-3-[(3-{3-[(3R*)-1-[(1-{2-[(3S)-2,6-dioxopiperidin-3-yl]-1-oxo-2,3-dihydro-1H-isoindol-5-yl}piperidin-4-yl)methyl]pyrrolidin-3-yl]phenyl}-4-oxo-3,4-dihydroquinazolin-6-yl)oxy]-4-fluorophenyl}-3-fluoropyrrolidine-1-sulfonamide], for which the DC50 was 50 to 500 nM in test [1] and 1 to 10 nM in test [2] (Assay D). Also, the Dmax in test [1] and in test [2] was 35 to 70% throughout.
